Test results published in patent EP0594540B1, “Antiretroviral acyl compounds” (Novartis AG, priority 1992, dated 1994).

Assay: Blood concentration in mice after oral administration (reversed-phase HPLC)
Type: in vivo, Mäusen
Conditions: oral gavage
Description: Die zu untersuchenden Verbindungen der Formel I oder als Kontrolle die Vergleichsverbindung der Formel II werden in Dimethylsulfoxid (DMSO) in einer Konzentration von 240 mg/ml gelöst. Die resultierenden Lösungen werden mit 20% (w/v) Hydroxypropyl-β-cyclodextrin (HPβCD) verdünnt, um eine Konzentration der Testsubstanz von 12 mg/ml zu erhalten. Diese Lösung wird Mäusen durch künstliche Sonderernährung in einer Dosis von 120 mg/kg verabreicht. 30, 60, 90 und 120 min nach der Verabreichung werden die Tiere getötet und Blut entnommen. Pro Zeitpunkt werden drei bis vier Tiere untersucht. Das Blut wird heparinisiert und für die Analyse durch eine der folgenden beiden Methoden vorbereitet: Nach der ersten Methode wird Vollblut deproteinisiert durch Mischen eines Volumenteils Blut mit einem Volumenteil Acetonitril; nach Zentrifugation wird der Überstand durch Reversed-Phase-HPLC untersucht. Nach der zweiten Methode wird ein interner Standard zum heparinisierten Blut in einer Endkonzentration von 4 µM zugegeben. Das Blut wird zentrifugiert. 0,25 ml Plasma werden abgenommen und mit einem gleichen Volumen Acetonitril deproteinisiert. Nach Zentrifugation wird der Überstand unter Vakuum eingetrocknet und der Rückstand in 20 µl 3M NaCl-Lösung und 100 µl 0,05M Phthalat-Puffer mit einem pH von 3,0 suspendiert. Die Suspension wird erst mit 1 ml, dann mit 0,2 ml Diisopropylether extrahiert. […]

CC(=O)O[C@H](CN1C[C@H]2CCCC[C@H]2C[C@H]1C(=O)NC(C)(C)C)[C@H](Cc1ccccc1)NC(=O)[C@H](CC(N)=O)NC(=O)c1ccc2ccccc2n1 [N-tert.-Butyl-decahydro-2-[2(R)-acetyloxy-4-phenyl-3(S)-[[N-(2-chinolylcarbonyl)-L-asparaginyl]amino]butyl]-(4aS,8aS)-isochinolin-3(S)-carboxamid]
Konzentration der aktiven Komponente der Formel II im Blut (120 mg/kg, 30, 60, 90 and 120 min after dosing, compared with administration of the compound of formula II in unesterified form): mehr als dreimal so hoch | Absorption der Verbindung der Formel I (120 mg/kg, compared with absorption of the compound of formula II): mehr als viermal so hoch
